Assay results reported in patent US11357230B2, “Herbicidal amides” (FMC Corporation, priority 2017, dated 2022).

Experiments:
Assay type in all cases: in vivo
[1] = test system: Foxtail, Giant; experiment: Test A postemergence, giant foxtail; details: approximately 10 d
[2] = test system: pigweed (Amaranthus retroflexus); experiment: Test A preemergence, pigweed; details: approximately 10 d
Excerpt: (§1) Seeds of plant species selected from barnyardgrass (Echinochloa crus-galli), kochia (Kochia scoparia), ragweed (common ragweed, Ambrosia elatior), ryegrass, Italian (Italian ryegrass, Lolium multiflorum), foxtail, green (green foxtail, Setaria viridis), and pigweed (Amaranthus retroflexus) were planted into a blend of loam soil and sand and treated preemergence with a directed soil spray using test chemicals formulated in a non-phytotoxic solvent mixture which included a surfactant. At the same time, plants selected from these weed species and also wheat (Triticum aestivum), corn (Zea mays), blackgrass (Alopecurus myosuroides), and galium (catchweed bedstraw, Galium aparine) were planted in pots containing the same blend of loam soil and sand and treated with postemergence applications of test chemicals formulated in the same manner. Plants ranged in height from 2 to 10 cm and were in the one- to two-leaf stage for the postemergence treatment. Treated plants and untreated controls were maintained in a greenhouse for approximately 10 d, after which time all treated plants were compared to untreated controls and visually evaluated for injury. Plant response ratings, summarized in Table A, are based on a 0 to 100 scale where 0 is no effect and 100 is complete control. A dash (-) response means no test result.

[3] = test system: ducksalad (Heteranthera limosa); experiment: Test B flooded paddy test, ducksalad; details: 250 g ai/ha, Flood (paddy water), 13 to 15 d
Method: (§2) Plant species in the flooded paddy test selected from rice (Oryza sativa), sedge, umbrella (small-flower umbrella sedge, Cyperus difformis), ducksalad (Heteranthera limosa), and barnyardgrass (Echinochloa crus-galli) were grown to the 2-leaf stage for testing. At time of treatment, test pots were flooded to 3 cm above the soil surface, treated by application of test compounds directly to the paddy water, and then maintained at that water depth for the duration of the test. Treated plants and controls were maintained in a greenhouse for 13 to 15 d, after which time all species were compared to controls and visually evaluated. Plant response ratings, summarized in Table B, are based on a scale of 0 to 100 where 0 is no effect and 100 is complete control. A dash (-) response means no test result.

[4] = test system: barnyardgrass (Echinochloa crus-galli); experiment: Test B flooded paddy test, barnyardgrass; details: 250 g ai/ha, Flood (paddy water), 13 to 15 d
Method: as §2

[5] = test system: ryegrass, Italian (Italian ryegrass, Lolium multiflorum); experiment: Test A postemergence, Italian ryegrass; details: approximately 10 d
Excerpt: as §1

[6] = test system: ryegrass, Italian (Italian ryegrass, Lolium multiflorum); experiment: Test A preemergence, Italian ryegrass; details: approximately 10 d
Excerpt: as §1

[7] = test system: galium (catchweed bedstraw, Galium aparine); experiment: Test A postemergence, galium; details: approximately 10 d
Excerpt: as §1

[8] = test system: blackgrass (Alopecurus myosuroides); experiment: Test A postemergence, blackgrass; details: approximately 10 d
Excerpt: as §1

[9] = test system: ragweed (common ragweed, Ambrosia elatior); experiment: Test A postemergence, ragweed; details: approximately 10 d
Excerpt: as §1

[10] = test system: corn (Zea mays); experiment: Test A postemergence, corn; details: approximately 10 d
Excerpt: as §1

[11] = test system: barnyardgrass (Echinochloa crus-galli); experiment: Test A postemergence, barnyardgrass; details: approximately 10 d
Excerpt: as §1

[12] = test system: Foxtail, Giant; experiment: Test A preemergence, giant foxtail; details: approximately 10 d
[13] = test system: ragweed (common ragweed, Ambrosia elatior); experiment: Test A preemergence, ragweed; details: approximately 10 d
Excerpt: as §1

[14] = test system: pigweed (Amaranthus retroflexus); experiment: Test A postemergence, pigweed; details: approximately 10 d
Excerpt: as §1

[15] = test system: wheat (Triticum aestivum); experiment: Test A postemergence, wheat; details: approximately 10 d
Excerpt: as §1

[16] = test system: kochia (Kochia scoparia); experiment: Test A preemergence, kochia; details: approximately 10 d
Excerpt: as §1

[17] = test system: sedge, umbrella (small-flower umbrella sedge, Cyperus difformis); experiment: Test B flooded paddy test, umbrella sedge; details: 250 g ai/ha, Flood (paddy water), 13 to 15 d
Method: as §2

[18] = test system: barnyardgrass (Echinochloa crus-galli); experiment: Test A preemergence, barnyardgrass; details: approximately 10 d
Excerpt: as §1

[19] = test system: kochia (Kochia scoparia); experiment: Test A postemergence, kochia; details: approximately 10 d
Excerpt: as §1

[20] = test system: rice (Oryza sativa); experiment: Test B flooded paddy test, rice; details: 250 g ai/ha, Flood (paddy water), 13 to 15 d
Method: as §2

[21] = test system: foxtail, green (green foxtail, Setaria viridis); experiment: Test A postemergence, green foxtail; details: approximately 10 d
Excerpt: as §1

[22] = test system: foxtail, green (green foxtail, Setaria viridis); experiment: Test A preemergence, green foxtail; details: approximately 10 d
Excerpt: as §1

Compound	Plant response rating (0 to 100 scale, 0 is no effect, 100 is complete control) ([2]; 31 g ai/ha)	Plant response rating (0 to 100 scale, 0 is no effect, 100 is complete control) ([2]; 125 g ai/ha)	Plant response rating (scale of 0 to 100, 0 is no effect, 100 is complete control) [3]	Plant response rating (scale of 0 to 100, 0 is no effect, 100 is complete control) [4]	Plant response rating (0 to 100 scale, 0 is no effect, 100 is complete control) ([5]; 31 g ai/ha)	Plant response rating (0 to 100 scale, 0 is no effect, 100 is complete control) ([5]; 125 g ai/ha)	Plant response rating (0 to 100 scale, 0 is no effect, 100 is complete control) ([6]; 31 g ai/ha)	Plant response rating (0 to 100 scale, 0 is no effect, 100 is complete control) ([6]; 125 g ai/ha)	Plant response rating (0 to 100 scale, 0 is no effect, 100 is complete control) ([7]; 31 g ai/ha)	Plant response rating (0 to 100 scale, 0 is no effect, 100 is complete control) ([7]; 125 g ai/ha)	Plant response rating (0 to 100 scale, 0 is no effect, 100 is complete control) ([8]; 31 g ai/ha)	Plant response rating (0 to 100 scale, 0 is no effect, 100 is complete control) ([8]; 125 g ai/ha)	Plant response rating (0 to 100 scale, 0 is no effect, 100 is complete control) ([9]; 31 g ai/ha)	Plant response rating (0 to 100 scale, 0 is no effect, 100 is complete control) ([9]; 125 g ai/ha)	Plant response rating (0 to 100 scale, 0 is no effect, 100 is complete control) ([10]; 31 g ai/ha)	Plant response rating (0 to 100 scale, 0 is no effect, 100 is complete control) ([10]; 125 g ai/ha)	Plant response rating (0 to 100 scale, 0 is no effect, 100 is complete control) ([11]; 31 g ai/ha)	Plant response rating (0 to 100 scale, 0 is no effect, 100 is complete control) ([11]; 125 g ai/ha)	Plant response rating (0 to 100 scale, 0 is no effect, 100 is complete control) ([13]; 125 g ai/ha)	Plant response rating (0 to 100 scale, 0 is no effect, 100 is complete control) ([14]; 31 g ai/ha)	other results
CN1C[C@H](c2ccc(C(F)(F)F)cc2)[C@@H](C(=O)Nc2cccc(F)c2F)C1=NNC(=O)OC(C)(C)C (relative stereo) [Compound 8]	30	80	60	75	10	60	20	70	60	70	30	60	0	0	20	70	60	80	20	30	Plant response rating (0 to 100 scale, 0 is no effect, 100 is complete control) ([1]; 31 g ai/ha): 50; Plant response rating (0 to 100 scale, 0 is no effect, 100 is complete control) ([1]; 125 g ai/ha): 80; Plant response rating (0 to 100 scale, 0 is no effect, 100 is complete control) ([12]; 31 g ai/ha): 90; Plant response rating (0 to 100 scale, 0 is no effect, 100 is complete control) ([12]; 125 g ai/ha): 90; Plant response rating (0 to 100 scale, 0 is no effect, 100 is complete control) ([14]; 125 g ai/ha): 40; Plant response rating (0 to 100 scale, 0 is no effect, 100 is complete control) ([15]; 31 g ai/ha): 0; Plant response rating (0 to 100 scale, 0 is no effect, 100 is complete control) ([15]; 125 g ai/ha): 40; Plant response rating (0 to 100 scale, 0 is no effect, 100 is complete control) ([16]; 31 g ai/ha): 20; Plant response rating (0 to 100 scale, 0 is no effect, 100 is complete control) ([16]; 125 g ai/ha): 80; Plant response rating (scale of 0 to 100, 0 is no effect, 100 is complete control) [17]: 0; Plant response rating (0 to 100 scale, 0 is no effect, 100 is complete control) ([18]; 31 g ai/ha): 90; Plant response rating (0 to 100 scale, 0 is no effect, 100 is complete control) ([18]; 125 g ai/ha): 90; Plant response rating (0 to 100 scale, 0 is no effect, 100 is complete control) ([19]; 31 g ai/ha): 0; Plant response rating (0 to 100 scale, 0 is no effect, 100 is complete control) ([19]; 125 g ai/ha): 0; Plant response rating (scale of 0 to 100, 0 is no effect, 100 is complete control) [20]: 0
CN1C[C@H](c2ccc(C(F)(F)F)cc2)[C@@H](C(=O)Nc2cccc(F)c2F)C1=NNC(=O)C(C)(C)C [Compound 1, 2-[(3R,4S)-3-[[(2,3-difluorophenyl)amino]carbonyl]-1-methyl-4-[4-(trifluoromethyl)phenyl]-2-pyrrolidinylidene]hydrazide 2,2-dimethylpropanoic Acid]	50	90	30	65	20	60	0	0	0	10	10	50	0	0	0	40	40	80	100	0	Plant response rating (0 to 100 scale, 0 is no effect, 100 is complete control) ([21]; 31 g ai/ha): 40; Plant response rating (0 to 100 scale, 0 is no effect, 100 is complete control) ([21]; 125 g ai/ha): 80; Plant response rating (0 to 100 scale, 0 is no effect, 100 is complete control) ([13]; 31 g ai/ha): 0; Plant response rating (0 to 100 scale, 0 is no effect, 100 is complete control) ([14]; 125 g ai/ha): 0; Plant response rating (0 to 100 scale, 0 is no effect, 100 is complete control) ([15]; 31 g ai/ha): 0; Plant response rating (0 to 100 scale, 0 is no effect, 100 is complete control) ([15]; 125 g ai/ha): 30; Plant response rating (0 to 100 scale, 0 is no effect, 100 is complete control) ([16]; 31 g ai/ha): 0; Plant response rating (0 to 100 scale, 0 is no effect, 100 is complete control) ([16]; 125 g ai/ha): 60; Plant response rating (scale of 0 to 100, 0 is no effect, 100 is complete control) [17]: 0; Plant response rating (0 to 100 scale, 0 is no effect, 100 is complete control) ([18]; 31 g ai/ha): 80; Plant response rating (0 to 100 scale, 0 is no effect, 100 is complete control) ([18]; 125 g ai/ha): 100; Plant response rating (0 to 100 scale, 0 is no effect, 100 is complete control) ([19]; 31 g ai/ha): 0; Plant response rating (0 to 100 scale, 0 is no effect, 100 is complete control) ([19]; 125 g ai/ha): 0; Plant response rating (scale of 0 to 100, 0 is no effect, 100 is complete control) [20]: 0; Plant response rating (0 to 100 scale, 0 is no effect, 100 is complete control) ([22]; 31 g ai/ha): 50; Plant response rating (0 to 100 scale, 0 is no effect, 100 is complete control) ([22]; 125 g ai/ha): 100
